Reference: US8158623B2, “Heptacyclic compounds and the pharmaceutical uses thereof for preventing and treating diabetes and metabolic syndrome” (Shanghai Institute of Materia Medica Chinese Academy of …, priority 2007, dated 2012)
“Also recorded” adds a separate entry of the source.

Columns and labels:
[1] = system: Acetyl CoA Carboxylase (ACC); test: Phosphorylation of ACC in HepG2 cell (Western blot); assay type: cell-based, Human; conditions: HepG2, 50 uM, 5 minutes, P<0.01 or P<0.05
Description: (§1) Human hepatoma carcinoma cell strain (HepG2, purchased from the cell bank of Shanghai Institute of Cell Biology of Chinese Academy) was used. The Human hepatoma carcinoma cells were passaged by 0.1% pancreatin/0.02% EDTA digestion, and cultured in a incubator at 37° C. using MEM culture medium containing 10% FBS, under 5% CO2/95%.
(§2) HepG2 cells were cultured in 6-well plates for 48 hours until 70%-80% confluence. Serum starvation was started by changing medium with MEM containing 0.5% BSA. After starvation for 6 hours, cells were treated with the compounds (final concentration of 50 uM, containing 0.25% DMSO) for 5 minutes. The culture medium was discarded, and cells were harvested and washed for twice with pre-cooled PBS. The washing liquid was discarded, and any residual PBS was blotted dry. DMSO without heptacyclic compounds was used as control.
(§3) Extraction of total cellular protein: 150 μl/well homogenizing buffer (137 mM NaCl, 2.7 mM KCl, 1 mM MgCl2, 0.5 mM Na3VO4, 1% Triton X-100, 10% Glycerol, 20 mM Tris-HCl pH 7.8, 1 ug/ml Leupeptin, 0.2 mM PMSF, 10 mM NaF, 1 ug/ml Aprotinin, 1 mM EDTA, 1 mM DTT, 5 mM Sodium pyrophosphate, 1 mM Benzamidine) was added. Cells were collected into a 1.5 ml centrifuge tube using cell scraper. Cells were homogenized using sonicator (5 W of power) for 2 times (3 seconds per time), and shaken on a shaker for 1 hour. Supernatant (i.e., total cellular protein) was collected by centrifuging at 14000 rpm for 15 min at 4° C., and stored at −70° C. until use. After the protein concentration was determined by Bradford method, the supernatant was formulated as the loading sample with final concentration of 0.6 mg/ml. The whole preparation process was performed at 4° C.
(§4) Protein Electrophoresis: After being treated at 95° C. for 5 min, the loading sample was loaded (15 μg protein/lane). The protein was separated on 7.5% SDS-acrylamide gel for 1-2 hours under the voltage of 80-120 V.
(§5) Electrotransferring the protein and blocking the membrane: After electrophoresis was finished, the protein was transferred to PVDF membrane using semi-dry transferring slot based on 0.8 mA/cm^2 membrane area under the electric current of 80 mA for 2 hours. After that, the membrane was shaken for 2 hours with 7.5% skim milk/TTBS to block the membrane.
(§6) Antigen-antibody reaction: After the blocking process was finished, the membrane was incubated with primary antibody (antibody against phosphorylated ACC (P-ACC) and antibody against phosphorylated AMPK (P-AMPK), all purchased from Cell signaling (USA), with the working concentration of 1:1000) overnight at 4° C. The membrane was removed, and the primary antibody was recovered. The membrane was washed 5 times, each for 10 min in TTBS. The membrane was shaken for 2 hours with the secondary antibody (horseradish peroxidase-conjugated goat-anti-rabbit IgG antibody, purchased from Bio-rad (USA), with the working concentration of 1:5000) at room temperature. The secondary antibody was discarded. The membrane was washed 5 times, each for 10 min in TTBS in order to remove the unbound secondary antibody.
(§7) ECL exposure and development: Luminescent agents, ECL 1, 2, were mixed homogeneously, and incubated with the membrane for 3-5 min. The membrane was removed, wrapped in preservative film, and transferred into dark room for exposure. After exposure with X-film, the film was developed, washed, recorded and conserved.
(§8) Semi-quantitative analysis was performed through optical density scan using computer image analysis system. Grey level of the protein expression was calculated. The target grey level was divided by the grey level of internal standard, and a histogram was plotted, taking the normal group as 1 unit.

[2] = system: AMP-Activated Protein Kinase (AMPK); test: Phosphorylation of AMPK in HepG2 cell (Western blot); assay type: cell-based, Human; conditions: HepG2, 50 uM, 5 minutes, P<0.01 or P<0.05
Description: as §1, §2, §3, §4, §5, §6, §7, §8

ob/ob mice [3] = test: Fasting blood glucose in ob/ob mice, several heptacyclic compounds, 8 days; assay type: in vivo
Description: Genetic spontaneous diabetes ob/ob mice were purchased from Jackson (USA), and maintained in a SPF facility (temperature: 22-24° C., humidity: 45-80%, illumination: 150-300 Lx, 12/12-hour light/dark cycle). Fasting blood glucose was determined for 3 days continuously when the mice were 7 weeks old. The mice were grouped into the treatment group and the control group (6 animals per group) according to the results determined. The treatment groups were administered orally with compound E9, G0 and F7 (psoromic acid) (100 mg/kg), and the control group was administered orally with a solution of 0.1% Tween 80 (blank control), once daily for 8 days. Fasting blood glucose in mice was determined at the end of experiment.

ob/ob mice [4] = test: Effect of F7 on liver weight, liver triglyceride, ALT and AST; assay type: in vivo; conditions: oral 50 mg/kg once daily for 3 weeks
Description: Genetic spontaneous diabetes ob/ob mice were purchased from Jackson (USA), and maintained in a SPF facility (temperature: 22-24° C., humidity: 45-80%, illumination: 150-300 Lx, 12/12-hour light/dark cycle). When the mice were 7 weeks old, the ob/ob mice were grouped into the treatment group and the control group (9 animals per group) according to the fasting blood glucose. The two groups were administered orally with compound F7 (50 mg/kg) and a solution of 0.1% Tween 80 respectively, once daily for 3 weeks. After 3 weeks, the animals were sacrificed and the liver was excised and weighed.
The triglyceride level in the liver was measured.

[5] = system: diet-induced obese (DIO) mice; test: Effect of F7 on body weight of diet-induced obese mice; assay type: in vivo, C57BL/6J mice; conditions: for Body weight: oral 50 mg/kg daily; for Body weight reduction compared with the model control group: oral 50 mg/kg
Description: Male C57BL/6J mice were maintained a SPF facility (temperature: 22-24° C., humidity: 45-80%, illumination: 150-300 Lx, 12/12-hour light/dark cycle). When the mice were 4 weeks old, they were fed with a high-fat diet (purchased from Research Diets Inc. (USA), D12492i, fat content is 60%). After 12 weeks, diet-induced obese (DIO) mice model was established. Another group of mice fed with normal diet (D12450Bi, fat content is 10%) was used as a normal control group. The DIO mice were divided into two group according to body weights, and administrated orally F7 (50 mg/kg) or 0.1% Tween80 (the model control group) respectively, every afternoon just before black out for 5 weeks. The body weights of mice were measured daily, and the effect of Compound F7 on body weight was observed.

COc1cc(C(=O)O)c2c(c1C)OC(=O)c1c(C)cc(O)c(C=O)c1O2 [Compound F7, 4-Formyl-3-hydroxy-8-methoxy-1,9-dimethyl-11-oxo-11H-dibenzo[b,e][1,4]dioxepine-6-carboxylic acid]
Level of phosphorylation for ACC protein versus DMSO control [1]: improved significantly
Level of phosphorylation for AMPK protein versus DMSO control [2]: significant up-regulation; also recorded: increased significantly
Fasting Blood Glucose (ob/ob mice [3]; before administration): 11.94 ± 1.50 mM
Fasting blood glucose change in words (ob/ob mice [3]; dosed continuously for 8 days, P<0.05): reduced statistically significant
Fasting Blood Glucose (ob/ob mice [3]; oral 100 mg/kg once daily, after 8 days treatment): 8.12 ± 1.04 mM
Liver TG (ob/ob mice [4]): 106.9 ± 35.6 µmol/g
Liver Weight (ob/ob mice [4]): 2.67 ± 0.57 g
Weight of other organs or its ratio to body weight (ob/ob mice [4]): no effect
ALT (ob/ob mice [4]; serum): 161.5 ± 28.4 U/L
AST (ob/ob mice [4]; serum): 197.3 ± 24.6 U/L
Body weight ([5]; 0 day): 39.2 ± 3.8 g
Body weight ([5]; 7 day): 36.4 ± 3.8 g
Body weight ([5]; 14 day): 36.5 ± 4.2 g
Body weight ([5]; 21 day): 36.2 ± 3.9 g
Body weight ([5]; 28 day): 36.1 ± 2.6 g
Body weight ([5]; 35 day): 35.8 ± 2.0 g
Body weight reduction compared with the model control group ([5]; 1 week after administration): 2 g
Body weight reduction compared with the model control group ([5]; 5 weeks after administration): 4.5 g
